Broadly, the GI50 is the concentration at which growth is held to half of that of the control.

Results on 3 compounds are retold here after ChEMBL document CHEMBL1201862, “PubChem BioAssay data set” (2004).

Among the test systems are HOP-92; HT-29; MDA-MB-231; COLO 205; T47D; SN12C; MOLT-4; DMS-273; CAKI-1; HOP-62; ACHN; SW-620; PC-3; DMS-114; NCI/ADR-RES; NCI-H226; A549; HCC 2998; SF-539; NCI-H460.
Holding throughout (test): DTP human tumour cell line panel, 48 h

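96-well plates; 48 h exposure; 5 concentrations. Endpoints by linear interpolation between flanking doses. Not reached: highest tested concentration assigned. GI50 marks 50% less growth.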 The source made the active and inactive calls. Cut-off read from the data, not from the text of the source: active = GI50 up to about 1.1 µM and inactive = higher.

`COc1cc2c(c(OC)c1OC)-c1ccc(OC)c(=O)cc1[C@@H](NC(=O)c1ccccc1)CC2`: the GI50 with HOP-92 was 0.0173 µM (active); with HT-29, 0.0114 µM (active); in the test on MDA-MB-231, 0.0151 µM (active); in the test on COLO 205, < 0.01 µM (active); with T47D, 58.3 µM (inactive); in the test on SN12C, 0.0146 µM (active). The GI50 was 0.0562 µM (active) in the test with MOLT-4; < 0.01 µM (active) with DMS-273; 0.0206 µM (active) in the test with CAKI-1; 0.0379 µM (active) with HOP-62; 0.0305 µM (active) in the test on ACHN; 0.0119 µM (active) in the test with SW-620. Besides, the GI50 was 0.0169 µM (active) in the test with PC-3; < 0.01 µM (active) with DMS-114; 0.168 µM (active) in the test on NCI/ADR-RES; 0.067 µM (active) with NCI-H226; 0.018 µM (active) in the test on A549; 0.0162 µM (active) with HCC 2998.
As for `O=C(CC(=O)Nc1ccccc1O)Nc1ccccc1O`, the GI50 in the test on HOP-92 is > 100 µM (inactive); with HT-29, 27.9 µM (inactive); in the test on SF-539 it was 19.1 µM (inactive); in the test with COLO 205, 18.5 µM (inactive); with NCI-H460, 18.3 µM (inactive); in the test on SN12C it was 16.3 µM (inactive). Further, the GI50 with MOLT-4 is 5.62 µM (inactive); with DMS-273, 25.9 µM (inactive); in the test with CAKI-1 it was 68.1 µM (inactive); with HOP-62, 80.9 µM (inactive); in the test on ACHN, 9.86 µM (inactive); in the test with SW-620, 4.6 µM (inactive). Besides, the GI50 in the test on DMS-114 was 1.75 µM (inactive); in the test with NCI-H226 it was 63.1 µM (inactive); in the test on A549 it was 29.9 µM (inactive); in the test on HCC 2998, 24.7 µM (inactive).
For `CCCCOCN/C(N)=N/C#N`, the GI50 in the test on HOP-92 is > 100 µM (inactive); with HT-29, > 100 µM (inactive); in the test with SF-539, > 100 µM (inactive); in the test on COLO 205 it was 38.3 µM (inactive); with NCI-H460, > 100 µM (inactive); in the test with SN12C, > 100 µM (inactive). In addition, the GI50 in the test with MOLT-4 is > 100 µM (inactive); in the test with DMS-273, 68.7 µM (inactive); in the test with CAKI-1 it was > 100 µM (inactive); in the test with HOP-62 it was > 100 µM (inactive); in the test on ACHN, > 100 µM (inactive); in the test with SW-620 it was 18.2 µM (inactive). The GI50 in the test with DMS-114, in the test with NCI-H226, in the test on A549 and with HCC 2998 was > 100 µM (inactive) each time.
